Assay results from patent US20230157952A1, “METHOD FOR IMPROVING THE STABILITY OF A PHARMACEUTICAL COMPOSITION COMPRISING A HIGH PENETRATION DRUG, AND THE PHARMACEUTICAL COMPOSITION OBTAINED THEREFROM” (Techfields Inc., priority 2020, published 2023).
Non-standard residues stand in square brackets, D forms with d. *: point of attachment. Arg(NO2) = N=C(NCCC[C@H](N)C(=O)O)N[N+](=O)[O-]; OiPr = CC(C)O*

Assays:
Assay type in all cases: physicochemical
[1] = Effect of pH value on the stability of the solution (purity); conditions: 25° C.
[2] = Stability of the pure HPDs (dry solid) at 25° C./RH 60%; conditions: for Purity: pure HPD, 25° C./RH 60%
[3] = Effect of temperature (and pH) on the stability of the solution (purity); conditions: for Stability of the solution at a temperature higher than 40° C. and a pH lower than 3 or greater than 6: 7% solution in water
[4] = 5% solution with 1 equivalent sodium acetate in 25% ethanol, pH 4.49-4.51
[5] = pure HPD at 25° C./RH 60%, in % (unit assumed)

For CCCCC(=O)O.CCN(CC)CCOC(=O)c1ccccc1OC(C)=O [A-4, 2-(diethylamino)ethyl acetylsalicylate•valeric acid], the “Purity(%) from day 0-14” value ([1]; day 14, pH 1.0, 7% in water) was 58.1 ± 0.3%, the “Purity(%) from day 0-14” value ([1]; day 14, pH 2.0, 7% in water) was 77.3 ± 0.2% and the “Purity(%) from day 0-14” value ([1]; day 14, pH 3.0, 7% in water) was 87.5 ± 0.3%. For the same compound, the “Purity(%) from day 0-14” value ([1]; day 14, pH 3.7, 7% in water) was 93.2 ± 0.3%, the “Purity(%) from day 0-14” value ([1]; day 14, pH 4.0, 7% in water) was 94.2 ± 0.4% and the “Purity(%) from day 0-14” value ([1]; day 14, pH 4.3, 7% in water) was 94.7 ± 0.2%. The “Purity(%) from day 0-14” value ([1]; day 14, pH 4.6, 7% in water) was 94.0 ± 0.2%, the “Purity(%) from day 0-14” value ([1]; day 14, pH 5.0, 7% in water) was 85.5 ± 0.4% and the “Purity(%) from day 0-14” value ([1]; day 14, pH 6.0, 7% in water) was 77.3 ± 0.3%. For the same compound, the “Purity(%) from day 0-14” value ([1]; day 14, pH 7.0, 7% in water) was 52.5 ± 0.4%, the “Purity(%) from day 0-14” value ([1]; day 14, pH 8.0, 7% in water) was 15.2 ± 0.4% and the Purity ([2]; 6 month) was 98.6 ± 0.1. It also gave a Purity ([2]; 12 month) of 98.0 ± 0.2, a Purity ([2]; 18 month) of 97.9 ± 0.2 and a Purity ([2]; 24 month) of 97.2 ± 0.1. It also gave a Purity ([2]; Day 0) of 98.6 ± 0.2.

For CCN(CC)CCOC(=O)C(C)c1ccc(-c2ccccc2)c(F)c1.Cl (stereo not shown) [B-1-1, 2-(diethylamino)ethyl 2-(2-fluoro-4-biphenyl)propionate•HCl salt], the “Stability of the solution at a temperature higher than 40° C. and a pH lower than 3 or greater than 6” value [3] was “not stable”, the Purity ([2]; 6 month) was 98.1 ± 0.1 and the Purity ([2]; 18 month) was 98.1 ± 0.1. The Purity ([2]; 24 month) was 98.0 ± 0.1.

Work on Br.CCN(CC)CCOC(=O)C(C)c1ccc(-c2ccccc2)c(F)c1 (stereo not shown) [B-1-4, 2-(diethylamino)ethyl 2-(2-fluoro-4-biphenyl)propionate•HBr salt] yielded a Purity ([2]; 18 month) of 98.1 ± 0.1, a Purity ([2]; 24 month) of 97.9 ± 0.1 and a Purity ([2]; Day 0) of 98.6 ± 0.2.

CCN(CC)CCOC(=O)[C@@H](C)c1ccc(CC(C)C)cc1.Cl [C-1-2, 2-(diethylamino)ethyl (S)-2-(p-isobutylphenyl)propionate•HCl salt] showed a Purity ([2]; 24 month) of 98.0 ± 0.5.

In the case of CCN(CC)CCOC(=O)[C@H](C)c1ccc(CC(C)C)cc1.Cl [C-1-3, 2-(diethylamino)ethyl (R)-2-(p-isobutylphenyl)propionate•HCl salt], the “Stability of the solution at a temperature higher than 40° C. and a pH lower than 3 or greater than 6” value [3] is reported as “not stable”, the Purity ([2]; 6 month) is reported as 98.1 ± 0.3 and the Purity ([2]; 9 month) is reported as 98.0 ± 0.1. It also gave a Purity ([2]; 12 month) of 98.0 ± 0.3, a Purity ([2]; 18 month) of 97.9 ± 0.3 and a Purity ([2]; 24 month) of 97.8 ± 0.2.

With “H-Ala-Pro-Gly-Pro-Arg(NO2)—OCH(CH3)2•HCl (H-APGP[Arg(NO2)]-OiPr; also: HCl salt) [T-2]” the “Purity (%) at day 30 (60° C.)” value [3, 4] was 32.8 ± 0.2%, the “Purity (%) at day 90 (60° C.)” value [3, 4] was 0% and the “Purity (%) at day 180 (60° C.)” value [3, 4] was 0%. The “Purity (%) at day 360 (60° C.)” value [3, 4] was 0%, the “Purity(%) at day 0” value [3, 4] was 98.9 ± 0.2% and the “Purity(%) at day 30 (5° C.)” value [3, 4] was 98.8 ± 0.2%. For the same compound, the “Purity(%) at day 30 (25° C.)” value [3, 4] was 97.8 ± 0.3%, the “Purity(%) at day 30 (40° C.)” value [3, 4] was 71.3 ± 0.2% and the “Purity(%) at day 90 (5° C.)” value [3, 4] was 98.5 ± 0.3%. The “Purity(%) at day 90 (25° C.)” value [3, 4] was 97.0 ± 0.2%, the “Purity(%) at day 90 (40° C.)” value [3, 4] was 33.6 ± 0.2% and the “Purity(%) at day 180 (5° C.)” value [3, 4] was 97.8 ± 0.2%. For the same compound, the “Purity(%) at day 180 (25° C.)” value [3, 4] was 95.2 ± 0.3%, the “Purity(%) at day 180 (40° C.)” value [3, 4] was 13.6 ± 0.2% and the “Purity(%) at day 360 (5° C.)” value [3, 4] was 97.4 ± 0.3%. The “Purity(%) at day 360 (25° C.)” value [3, 4] was 92.3 ± 0.3%, the “Purity(%) at day 360 (40° C.)” value [3, 4] was 0% and the “Purity at 3 month” value [2, 5] was 98.9 ± 0.3. The “Purity at 6 month” value [2, 5] was 98.6 ± 0.2, the “Purity at 9 month” value [2, 5] was 98.6 ± 0.3 and the “Purity at 12 month” value [2, 5] was 98.5 ± 0.2. For the same compound, the “Purity at 18 month” value [2, 5] was 98.5 ± 0.2, the “Purity at 24 month” value [2, 5] was 98.4 ± 0.2 and the “Purity at Day 0” value [2, 5] was 98.9 ± 0.1. The “Stability of the pure powder” value ([2]; room temperature (25° C./RH 60%)) was “very stable”.
